The source made the active and inactive calls. The rule behind the calls is not given here.
What was measured:
L6 = experiment: Induction of glucose uptake in rat L6 cells incubated for 24 hrs by GOD-POD technique; assay type: functional; design: concentration or dose not given beside the values
[1] = molecular target: T1, Peroxisome proliferator-activated receptor gamma (Homo sapiens) (UniProt P37231); experiment: Agonist activity at PPARgamma in human HepG2 cells assessed as increase in PPARgamma transcription factor expression by ELISA analysis; assay type: cell-based; conditions: filed as agonist, dose 6.25-50 µM
T1 sequence (whole entry): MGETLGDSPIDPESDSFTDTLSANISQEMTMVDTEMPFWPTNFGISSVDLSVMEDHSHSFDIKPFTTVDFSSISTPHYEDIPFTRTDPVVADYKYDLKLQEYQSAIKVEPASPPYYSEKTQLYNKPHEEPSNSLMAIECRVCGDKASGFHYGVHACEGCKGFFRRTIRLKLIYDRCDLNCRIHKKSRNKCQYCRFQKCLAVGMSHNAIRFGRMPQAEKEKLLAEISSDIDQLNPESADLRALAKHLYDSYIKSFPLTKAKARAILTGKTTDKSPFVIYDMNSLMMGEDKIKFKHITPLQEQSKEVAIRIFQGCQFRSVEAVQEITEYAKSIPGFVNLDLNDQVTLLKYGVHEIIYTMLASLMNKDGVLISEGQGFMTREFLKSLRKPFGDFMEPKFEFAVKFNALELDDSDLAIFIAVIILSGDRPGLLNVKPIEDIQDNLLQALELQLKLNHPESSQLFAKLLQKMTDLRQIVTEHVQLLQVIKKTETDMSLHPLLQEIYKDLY

[2] = Cmax in male Wistar rat at 30 mg/kg, po measured upto 24 hrs; assay type: ADME, organism-based; conditions: in vivo
[3] = Tmax in male Wistar rat at 30 mg/kg, po measured upto 24 hrs; assay type: ADME, organism-based; conditions: in vivo
[4] = AUC (0 to t) in male Wistar rat at 30 mg/kg, po measured upto 24 hrs; assay type: ADME, organism-based; conditions: in vivo
[5] = AUC (0 to infinity) in male Wistar rat at 30 mg/kg, po measured upto 24 hrs; assay type: ADME, organism-based; conditions: in vivo
[6] = Half life in male Wistar rat at 30 mg/kg, po measured upto 24 hrs; assay type: ADME, organism-based; conditions: in vivo
[7] = Acute toxicity in male Wistar rat assessed as body weight gain at 10 mg/kg, po administered for 15 days; assay type: organism-based; conditions: in vivo, 360 h, time 15 day
[8] = Acute toxicity in male Wistar rat assessed as change in body weight at 10 mg/kg, po administered for 15 days; assay type: organism-based; conditions: in vivo, 360 h, time 15 day
Rattus norvegicus [9] = experiment: Anti-diabetic activity in fructose-treated male Wistar rat assessed as decrease in fasting blood glucose level at 30 mg/kg, po administered for 15 days; assay type: functional, organism-based; conditions: time 15.0 day
Rattus norvegicus [10] = experiment: Anti-diabetic activity in fructose-treated male Wistar rat assessed as decrease in insulin level at 30 mg/kg, po administered for 15 days by insulin tolerance test; assay type: functional, organism-based; conditions: time 15.0 day
Rattus norvegicus [11] = experiment: Anti-diabetic activity in fructose-treated male Wistar rat assessed as increase in HOMO-IR level at 30 mg/kg, po administered for 15 days; assay type: functional, organism-based; conditions: time 15.0 day
Rattus norvegicus [12] = experiment: Anti-diabetic activity in fructose-treated male Wistar rat assessed as increase in glycogen content in skeletal muscle at 30 mg/kg, po administered for 15 days; assay type: functional, organism-based; conditions: time 15.0 day
Rattus norvegicus [13] = experiment: Anti-diabetic activity in fructose-treated male Wistar rat assessed as increase in glycogen content in liver at 30 mg/kg, po administered for 15 days; assay type: functional, organism-based; conditions: time 15.0 day
Rattus norvegicus [14] = experiment: Anti-diabetic activity in Wistar rat Diaphragm assessed as […] at 30 mg/kg, po administered for 15 days; assay type: functional, organism-based; conditions: time 15.0 day
Rattus norvegicus [15] = experiment: Anti-diabetic activity in fructose-treated male Wistar rat assessed as decrease in triglycerides level at 30 mg/kg, po administered for 15 days (reference value: 140.03 +/-3.55 mg/dL); assay type: functional; conditions: time 15 day
Rattus norvegicus [16] = experiment: Anti-diabetic activity in fructose-treated male Wistar rat assessed as increase in total cholesterol level at 30 mg/kg, po administered for 15 days (reference value: 93.68 +/-1.68 mg/dL); assay type: functional; conditions: time 15 day
Rattus norvegicus [17] = experiment: Anti-diabetic activity in fructose-treated male Wistar rat assessed as increase in HDL level at 30 mg/kg, po administered for 15 days (reference value: 25.35 +/-2.03 mg/dL); assay type: functional; conditions: time 15 day
Rattus norvegicus [18] = experiment: Anti-diabetic activity in fructose-treated male Wistar rat assessed as decrease in VLDL level at 30 mg/kg, po administered for 15 days (reference value: 28 +/-0.28 mg/dL); assay type: functional; conditions: time 15 day
Rattus norvegicus [19] = experiment: Anti-diabetic activity in fructose-treated male Wistar rat assessed as increase in LDL level at 30 mg/kg, po administered for 15 days (reference value: 40.32 +/-1.08 mg/dL); assay type: functional; conditions: time 15 day
Rattus norvegicus [20] = experiment: Anti-diabetic activity in fructose-treated male Wistar rat assessed as decrease in SGOT level at 30 mg/kg, po administered for 15 days (reference value: […]); assay type: functional; conditions: time 15 day
Rattus norvegicus [21] = experiment: Anti-diabetic activity in fructose-treated male Wistar rat assessed as decrease in SGPT level at 30 mg/kg, po administered for 15 days (reference value: […]); assay type: functional; conditions: time 15 day
Rattus norvegicus [22] = experiment: Anti-diabetic activity in fructose-treated male Wistar rat assessed as increase in SOD level in liver at 30 mg/kg, po administered for 15 days (reference value: 13.25 +/-1.35 U/ml); assay type: functional; conditions: time 15 day
Rattus norvegicus [23] = experiment: Anti-diabetic activity in fructose-treated male Wistar rat assessed as increase in CAT level in liver at 30 mg/kg, po administered for 15 days (reference value: 27.65 +/-1.02 U/min); assay type: functional; conditions: time 15 day
Rattus norvegicus [24] = experiment: Anti-diabetic activity in fructose-treated male Wistar rat assessed as decrease in MDA level in liver at 30 mg/kg, po administered for 15 days (reference value: 294.65 +/-11.78 nM/mg ); assay type: functional; conditions: time 15 day
Rattus norvegicus [25] = experiment: Anti-diabetic activity in fructose-treated male Wistar rat assessed as increase in GSH level in liver at 30 mg/kg, po administered for 15 days (reference value: 39.98 +/-0.86 nM/mg ); assay type: functional; conditions: time 15 day
Rattus norvegicus [26] = experiment: Anti-diabetic activity in fructose-treated male Wistar rat assessed as sinusoidal congestion in liver 30 mg/kg, po administered for 15 days by H and E staining based analysis; assay type: functional, organism-based; conditions: time 15.0 day
Rattus norvegicus [27] = experiment: Anti-diabetic activity in fructose-treated male Wistar rat assessed as ballooning degeneration in liver 30 mg/kg, po administered for 15 days by H and E staining based analysis; assay type: functional, organism-based; conditions: time 15.0 day
Rattus norvegicus [28] = experiment: Anti-diabetic activity in fructose-treated male Wistar rat assessed as steatosis in liver 30 mg/kg, po administered for 15 days by H and E staining based analysis; assay type: functional, organism-based; conditions: time 15.0 day
Rattus norvegicus [29] = experiment: Anti-diabetic activity in fructose-treated male Wistar rat assessed as kupffer cell hyperplasia in liver 30 mg/kg, po administered for 15 days by H and E staining based analysis; assay type: functional, organism-based; conditions: time 15.0 day
Rattus norvegicus [30] = experiment: Anti-diabetic activity in fructose-treated male Wistar rat assessed as lymphocyte infiltration in liver 30 mg/kg, po administered for 15 days by H and E staining based analysis; assay type: functional, organism-based; conditions: time 15.0 day
Rattus norvegicus [31] = experiment: Anti-diabetic activity in fructose-treated male Wistar rat assessed as decrease in adipocyte count 30 mg/kg, po administered for 15 days by H and E staining based analysis; assay type: functional, organism-based; conditions: time 15.0 day
[32] = Retention time of the compound by HPLC analysis; assay type: physicochemical
[33] = Drug recovery in rat plasma at 50 mg/kg, po by HPLC analysis; assay type: ADME, organism-based; conditions: in vivo
[34] = Drug recovery in rat plasma at 100 mg/kg, po by HPLC analysis; assay type: ADME, organism-based; conditions: in vivo
[35] = Drug recovery in rat plasma at 150 mg/kg, po by HPLC analysis; assay type: ADME, organism-based; conditions: in vivo
[36] = molecular target: T1, Peroxisome proliferator-activated receptor gamma (Homo sapiens); experiment: Agonist activity at Gal4-fused human PPARgamma transfected in African green monkey CV-1 cells assessed as receptor transactivation incubated for 24 hrs by luciferase based assay relative to control; assay type: cell-based
Rattus norvegicus [37] = experiment: Anti-diabetic activity in fructose-treated male Wistar rat assessed as change in HOMO-IR level at 30 mg/kg, po administered for 15 days; assay type: functional, organism-based; conditions: time 15.0 day

N#C[C@H]1CCCN1C(=O)CN1C(=O)S/C(=C\c2ccc(F)cc2)C1=O
Activity (L6): 74.58%
Activity [1]: Dose-dependent-effect
Cmax [2]: 926 ng/mL
Tmax [3]: 2 h
AUC(0-t) at 24 h [4]: 5620 ng·h/mL
AUC(0-inf) [5]: 6240 ng·h/mL
half-life [6]: 3.96 h
Activity [7]: Non-toxic
Activity [8]: Non-toxic
Activity (Rattus norvegicus [9]): Active
Activity (Rattus norvegicus [10]): Active
Activity (Rattus norvegicus [11]): Active
Activity (Rattus norvegicus [12]): Active
Activity (Rattus norvegicus [13]): Active
Activity (Rattus norvegicus [14]): Active
Activity (Rattus norvegicus [15]): 86.15 mg/dL
Activity (Rattus norvegicus [16]): 112.3 mg/dL
Activity (Rattus norvegicus [17]): 51.39 mg/dL
Activity (Rattus norvegicus [18]): 17.23 mg/dL
Activity (Rattus norvegicus [19]): 42.74 mg/dL
Activity (Rattus norvegicus [20]): 46.36 U/L
Activity (Rattus norvegicus [21]): 39.72 U/L
Activity (Rattus norvegicus [22]): 20.36 U/ml
Activity (Rattus norvegicus [23]): 48.65 U/min
Activity (Rattus norvegicus [24]): 224.65 nM/mg
Activity (Rattus norvegicus [25]): 58.63 nM/mg
Activity (Rattus norvegicus [26]): Active
Activity (Rattus norvegicus [27]): Active
Activity (Rattus norvegicus [28]): Active
Activity (Rattus norvegicus [29]): Active
Activity (Rattus norvegicus [30]): Active
Activity (Rattus norvegicus [31]): Active
Retention_time [32]: 6.7 min
Drug recovery [33]: 99.96%
Drug recovery [34]: 99.58%
Drug recovery [35]: 98.36%

N#C[C@H]1CCCN1C(=O)CN1C(=O)S/C(=C\c2ccco2)C1=O
Activity (L6): 57.4%

N#C[C@H]1CCCN1C(=O)CN1C(=O)S/C(=C\c2ccccc2)C1=O
Activity (L6): 63.23%

COc1ccc(/C=C2\SC(=O)N(CC(=O)N3CCC[C@@H]3C#N)C2=O)cc1OC
Activity (L6): 64.56%

COc1cc(/C=C2\SC(=O)N(CC(=O)N3CCC[C@@H]3C#N)C2=O)cc(OC)c1OC
Activity (L6): 69.74%

O=C1NC(=O)C(Cc2ccc(OCc3cccc(Br)c3)cc2)S1 (stereo unspecified)
Activity [36]: 21.2%

COc1ccc(/C=C2\SC(=O)N(CC(=O)N3CCC[C@@H]3C#N)C2=O)cc1
Activity (L6): 58.66%

N#C[C@H]1CCCN1C(=O)CN1C(=O)S/C(=C\c2ccc(O)cc2)C1=O
Activity (L6): 79.29%
Activity [1]: Dose-dependent-effect
Cmax [2]: 1030 ng/mL
Tmax [3]: 2.21 h
AUC(0-t) at 24 h [4]: 5980 ng·h/mL
AUC(0-inf) [5]: 6620 ng·h/mL
half-life [6]: 4.21 h
Activity [7]: Non-toxic
Activity [8]: Non-toxic
Activity (Rattus norvegicus [9]): Active
Activity (Rattus norvegicus [10]): Active
Activity (Rattus norvegicus [37]): Active
Activity (Rattus norvegicus [12]): Active
Activity (Rattus norvegicus [13]): Active
Activity (Rattus norvegicus [14]): Active
Activity (Rattus norvegicus [15]): 76.18 mg/dL
Activity (Rattus norvegicus [16]): 114.79 mg/dL
Activity (Rattus norvegicus [17]): 53.25 mg/dL
Activity (Rattus norvegicus [18]): 15.23 mg/dL
Activity (Rattus norvegicus [19]): 47.8 mg/dL
Activity (Rattus norvegicus [20]): 41.32 U/L
Activity (Rattus norvegicus [21]): 37.12 U/L
Activity (Rattus norvegicus [22]): 24.68 U/ml
Activity (Rattus norvegicus [23]): 52.36 U/min
Activity (Rattus norvegicus [24]): 197.32 nM/mg
Activity (Rattus norvegicus [25]): 61.35 nM/mg
Activity (Rattus norvegicus [26]): Active
Activity (Rattus norvegicus [27]): Active
Activity (Rattus norvegicus [28]): Active
Activity (Rattus norvegicus [29]): Active
Activity (Rattus norvegicus [30]): Active
Activity (Rattus norvegicus [31]): Active
Retention_time [32]: 4.4 min
Drug recovery [33]: 97.1%
Drug recovery [34]: 101%
Drug recovery [35]: 96.1%

N#C[C@H]1CCCN1C(=O)CN1C(=O)S/C(=C\c2ccccc2O)C1=O
Activity (L6): 72.86%

Cc1ccc(/C=C2\SC(=O)N(CC(=O)N3CCC[C@@H]3C#N)C2=O)cc1
Activity (L6): 64.57%

CN(C)c1ccc(/C=C2\SC(=O)N(CC(=O)N3CCC[C@@H]3C#N)C2=O)cc1
Activity (L6): 64.18%
